Measured values reported in patent US11274124B2, “Tubulysin analogues as anticancer agents and payloads for antibody-drug conjugates and methods of treatment therewith” (William Marsh Rice University, priority 2017, dated 2022).
Like-named read-outs stand apart in the source and are kept apart here.

Key:
[1] = test system: MES SA (uterine sarcoma cell line); assay: In vitro cytotoxicity assay (CellTiter-Glo, 72 hours), MES SA; format: cell-based
[2] = test system: HEK 293T (human embryonic kidney cancer cell line); assay: In vitro cytotoxicity assay (CellTiter-Glo, 72 hours), HEK 293T; format: cell-based
[3] = test system: MES SA DX (MES SA cell line with marked multi-drug resistance); assay: In vitro cytotoxicity assay (CellTiter-Glo, 72 hours), MES SA DX
[4] = Homo sapiens, MES-SA, 72 h, read-out: MES SA, IC50 Value in nM
[5] = Homo sapiens, HEK-293T, 72 h, read-out: HEK 293T, IC50 Value in nM
[6] = Homo sapiens, MES-SA, 72 h, read-out: MES SA DX, IC50 Value in nM
[7] = Table 2, 72 hours, CellTiter-Glo, read-out: MES SA, IC50 Value in nM
[8] = Table 2, 72 hours, CellTiter-Glo, read-out: HEK 293T, IC50 Value in nM
[9] = read-out: MES SA DX, IC50 Value in nM, Table 2, 72 hours, CellTiter-Glo
[10] = Homo sapiens, MES-SA, 72 h, read-out: MES SA, IC50
[11] = Homo sapiens, HEK-293T, 72 h, read-out: HEK 293T, IC50
[12] = Homo sapiens, MES-SA, 72 h, read-out: MES SA DX, IC50

| Structure (SMILES) | IC50 [1, 4] | IC50 [2, 5] | IC50 [3, 6] | IC50 [1, 7] | IC50 [2, 8] | IC50 [3, 9] | IC50 [1, 10] | IC50 [2, 11] | IC50 [3, 12] | cytotoxicities against the marked drug resistant cancer cell line MES SA DX (in words) [3] |
| --- | --- | --- | --- | --- | --- | --- | --- | --- | --- | --- |
| CCOC(=O)[C@@H](C)CC(Cc1ccccc1)NC(=O)c1nc([C@@H](C[C@H](C(C)C)N(C)C(=O)[C@@H](NC(=O)[C@H]2CCCCN2C)C(C)C)OC(C)=O)sc1CCOCc1ccccc1 (stereo in doubt) [Tb110, Ethyl (2S,4S)-4-[({2-[(1R,3R)-1-acetoxy-4-methyl-3-{methyl[(2S)-3-methyl-2-{[(1-methylpiperidin-2-yl)carbonyl]amino}butanoyl]amino}pentyl]-5-[2-(benzyloxy)ethyl]-1,3-thiazol-4-yl}carbonyl)-amino]-2-methyl-5-phenylpentanoate] | 3.09 nM | 1.87 nM | > 400 nM | – | – | – | – | – | – | – |
| COC(=O)[C@@H](C)C[C@H](Cc1ccccc1)NC(=O)c1csc([C@@H](C[C@H](C(C)C)N(C)C(=O)[C@H](C)NC(=O)[C@H]2CCCCN2C)OC(C)=O)n1 [Tb89, Methyl (2S,4R)-4-[({2-[(1R,3R)-1-acetoxy-4-methyl-3-{methyl[(2S)-2-({[(2R)-1-methylpiperidin-2-yl]carbonyl}amino)propanoyl]amino}pentyl]-1,3-thiazol-4-yl}carbonyl)amino]-2-methyl-5-phenylpentanoate] | > 1000 nM | > 1000 nM | > 1000 nM | – | – | – | – | – | – | – |
| CC(=O)O[C@H](C[C@H](C(C)C)N(C)C(=O)[C@H](NC(=O)[C@H]1CCCCN1C)C(C(F)(F)F)C(F)(F)F)c1nc(C(=O)N[C@@H](Cc2ccccc2)C[C@H](C)C(=O)O)cs1 [Tb87, (2S,4R)-4-[({2-[(1R,3R)-1-Acetoxy-4-methyl-3-{methyl[(2R)-4,4,4-trifluoro-2-({[(2R)-1-methyl-piperidin-2-yl]carbonyl}amino)-3-(trifluoromethyl)butanoyl]amino}pentyl]-1,3-thiazol-4-yl}carbonyl)amino]-2-methyl-5-phenylpentanoic acid] | 234 nM | > 1000 nM | > 1000 nM | – | – | – | – | – | – | – |
| CC(C)[C@@H](C[C@@H](O)c1nc(C(=O)N[C@@H](Cc2ccccc2)C[C@H](C)C(=O)O)cs1)N(C)C(=O)[C@H](CC(F)(F)F)NC(=O)[C@H]1CCCCN1C [Tb83, (2S,4R)-4-[({2-[(1R,3R)-1-Hydroxy-4-methyl-3-{methyl[(2S)-4,4,4-trifluoro-2-({[(2R)-1-methyl-piperidin-2-yl]carbonyl}amino)butanoyl]amino}pentyl]-1,3-thiazol-4-yl}carbonyl)amino]-2-methyl-5-phenylpentanoic acid] | > 1000 nM | > 1000 nM | > 1000 nM | – | – | – | – | – | – | – |
| CC[C@H](C)[C@H](NC(=O)[C@H]1CCCCN1C)C(=O)N(C)[C@H](C[C@@H](OC(C)=O)c1nc(C(=O)N[C@@H](Cc2ccccc2)C[C@H](C)C(=O)O)cs1)C(C)C [Tb1, N^14-desacetoxytubulysin H, reference compound] | – | – | – | 0.34 nM | 0.02 nM | > 10 nM | – | – | – | – |
| COC(=O)[C@@H](C)C[C@H](Cc1ccccc1)NC(=O)c1csc([C@@H](C[C@H](C(C)C)N(C)C(=O)[C@@H](NC(=O)[C@H]2CCCCN2C)C(C)C)OC(C)=O)n1 [Tb32, reference compound] | – | – | – | 0.012 nM | 0.002 nM | 1.29 nM | – | – | – | – |
| CCOC(=O)C(C)CC(Cc1ccccc1)NC(=O)c1nc([C@@H](CC(C(C)C)N(C)C(=O)[C@@H](NC(=O)[C@H]2CCCCN2C)C(C)C)OC(C)=O)sc1CCO (stereo in doubt) [Tb112, Ethyl (2R,4S)-4-[({2-[(1R,3S)-1-acetoxy-4-methyl-3-{methyl[(2S)-3-methyl-2-{[(1-methylpiperidin-2-yl)carbonyl]amino}butanoyl]amino}pentyl]-5-(2-hydroxyethyl)-1,3-thiazol-4-yl}carbonyl)amino]-2-methyl-5-phenylpentanoate] | 0.1 nM | 0.09 nM | > 400 nM | – | – | – | 0.1 nM | 0.09 nM | > 400 nM | – |
| COC(=O)CC12CC(NC(=O)c3csc([C@@H](C[C@H](C(C)C)N(C)C(=O)[C@@H](NC(=O)[C@H]4CCCCN4C)C(C)C)OC(C)=O)n3)(C1)C2 [Tb103, Methyl (3-{[(2-{1-acetoxy-4-methyl-3-[methyl(3-methyl-2-{[(1-methylpiperidin-2-yl)carbonyl]amino}-butanoyl)amino]pentyl}-1,3-thiazol-4-yl)carbonyl]amino}bicyclo[11.1.]pent-1-yl)acetate] | 2.74 nM | 1.79 nM | 22.6 nM | – | – | – | – | – | – | – |
| COC(=O)C(CC(Cc1ccccc1)NC(=O)c1csc([C@@H](CC(C(C)C)N(C)C(=O)[C@@H](NC(=O)[C@H]2CCCCN2C)C(C)C)OC(C)=O)n1)NC(=O)OCc1ccccc1 (stereo in doubt) [Tb116, Methyl(2R,4R)-4-[({2-[(1R,3S)-1-acetoxy-4-methyl-3-{methyl[(2S)-3-methyl-2-{[(1-methylpiperidin-2-yl)carbonyl]amino}butanoyl]amino}pentyl]-1,3-thiazol-4-yl}carbonyl)amino]-2-{[(benzyloxy)carbonyl]amino}-5-phenylpentanoate] | 0.007 nM | 0.003 nM | 6 nM | – | – | – | 0.007 nM | 0.003 nM | 6 nM | relatively potent (low nanomolar) |
| CC(=O)O[C@H](C[C@H](C(C)C)N(C)C(=O)[C@@H](NC(=O)[C@H]1CCCCN1C)C(C)C)c1nc(C(=O)N[C@@H](Cc2ccccc2)CC2C(=O)OC(C)(C)OC2=O)cs1 [Tb114, 1-(4-{[1-(2,2-Dimethyl-4,6-dioxo-1,3-dioxan-5-yl)-3-phenylpropan-2-yl]carbamoyl}-1,3-thiazol-2-yl)-4-methyl-3-[methyl(3-methyl-2-{[(1-methylpiperidin-2-yl)carbonyl]amino}butanoyl)amino]-pentyl acetate] | 1.23 nM | 0.524 nM | > 400 nM | – | – | – | – | – | – | – |
| CCCCN1CCCC[C@@H]1C(=O)N[C@H](C(=O)N(C)[C@H](C[C@@H](OC(C)=O)c1nc(C(=O)N[C@@H](Cc2cn(C)c3ccccc23)C[C@H](C)C(=O)OC)cs1)C(C)C)[C@@H](C)CC [Tb57, Methyl (2S,4R)-4-[({2-[(1R,3R)-1-acetoxy-3-{[(2S,3S)-2-({[(2R)-1-butylpiperidin-2-yl]carbonyl}-amino)-3-methylpentanoyl](methyl)amino}-4-methylpentyl]-1,3-thiazol-4-yl}carbonyl)amino]-2-methyl-5-(1-methyl-1H-indol-3-yl)pentanoate] | > 1000 nM | > 1000 nM | > 1000 nM | – | – | – | – | – | – | – |
| COC(=O)[C@@H](C)C[C@H](Cc1ccccc1)NC(=O)c1nc([C@@H](C[C@H](C(C)C)N(C)C(=O)[C@@H](NC(=O)[C@H]2CC(=O)CCN2C)C(C)C)OC(C)=O)sc1C(C)C [Tb75, Methyl (2S,4R)-4-[({2-[(1R,3R)-1-acetoxy-4-methyl-3-{methyl[(2S)-3-methyl-2-({[(2R)-1-methyl-4-oxopiperidin-2-yl]carbonyl}amino)butanoyl]amino}pentyl]-5-isopropyl-1,3-thiazol-4-yl}carbonyl)-amino]-2-methyl-5-phenylpentanoate] | ≥ 400 nM | 127 nM | > 400 nM | – | – | – | – | – | – | – |
| COC(=O)[C@H](C[C@H](Cc1ccccc1)NC(=O)c1csc([C@@H](C[C@H](C(C)C)N(C)C(=O)[C@@H](NC(=O)[C@H]2CCCCN2C)C(C)C)OC(C)=O)n1)N(C)C [Tb117, Methyl (2S)-4-{[(2-{1-acetoxy-4-methyl-3-[methyl(3-methyl-2-{[(1-methylpiperidin-2-yl)carbonyl]-amino}butanoyl)amino]pentyl}-1,3-thiazol-4-yl)carbonyl]amino}-2-(dimethylamino)-5-phenylpentanoate] | 0.099 nM | 0.059 nM | 4.63 nM | – | – | – | 0.099 nM | 0.059 nM | 4.63 nM | – |
| COC(=O)[C@@H](CC(Cc1ccccc1)NC(=O)c1csc([C@@H](CC(C(C)C)N(C)C(=O)[C@@H](NC(=O)[C@H]2CCCCN2C)C(C)C)OC(C)=O)n1)NC(=O)OCc1ccccc1 (stereo in doubt) [Tb115, Methyl(2R,4R)-4-[({2-[(1R,3S)-1-acetoxy-4-methyl-3-{methyl[(2S)-3-methyl-2-{[(1-methylpiperidin-2-yl)carbonyl]amino}butanoyl]amino}pentyl]-1,3-thiazol-4-yl}carbonyl)amino]-2-{[(benzyloxy)carbonyl]amino}-5-phenylpentanoate] | 0.02 nM | 0.01 nM | 13.8 nM | – | – | – | 0.02 nM | 0.01 nM | 13.8 nM | relatively potent (low nanomolar) |
| COC(=O)[C@@H](C)C[C@H](Cc1ccccc1)NC(=O)c1csc([C@H](O)C[C@H](C(C)C)N(C)C(=O)[C@@H](NC(=O)[C@H]2CCCCN2C)C(C(F)(F)F)C(F)(F)F)n1 [Tb80, Methyl (2S,4R)-4-[({2-[(1R,3R)-1-hydroxy-4-methyl-3-{methyl[(2S)-4,4,4-trifluoro-2-({[(2R)-1-methylpiperidin-2-yl]carbonyl}amino)-3-(trifluoromethyl)butanoyl]amino}pentyl]-1,3-thiazol-4-yl}-carbonyl)amino]-2-methyl-5-phenylpentanoate] | > 1000 nM | > 1000 nM | > 1000 nM | – | – | – | – | – | – | – |
